Active and inactive are the calls of the source. The rule behind the calls is not given here.
Assays:
Mus musculus [1] = assay: Toxicity in albino Mus musculus (mouse) assessed as change in eye color at 150 to 900 mg/kg, ip measured within 24 hr; type: organism-based; set-up: dose 150-900 mg/kg, route intraperitoneal; details: in vivo
Mus musculus [2] = assay: Toxicity in albino Mus musculus (mouse) assessed as tremor in hind limbs at 150 to 900 mg/kg, ip measured within 24 hr; type: organism-based, Hindlimb; set-up: dose 150-900 mg/kg, route intraperitoneal; details: in vivo
Mus musculus [3] = assay: Toxicity in albino Mus musculus (mouse) assessed as increase in heart rate at 150 to 900 mg/kg, ip measured within 1 to 2 hr; type: organism-based; set-up: route intraperitoneal; details: in vivo
Mus musculus [4] = assay: Toxicity in albino Mus musculus (mouse) assessed as change in eye color at 650 to 1800 mg/kg, ip measured within 24 hr; type: organism-based; set-up: dose 650-1800 mg/kg, route intraperitoneal; details: in vivo
Mus musculus [5] = assay: Toxicity in albino Mus musculus (mouse) assessed as tremor in hind limbs at 650 to 1800 mg/kg, ip measured within 24 hr; type: organism-based, Hindlimb; set-up: dose 650-1800 mg/kg, route intraperitoneal; details: in vivo
Mus musculus [6] = assay: Toxicity in albino Mus musculus (mouse) assessed as rapid respiration at 650 to 1800 mg/kg, ip measured within 1 to 2 hr; type: organism-based; set-up: route intraperitoneal; details: in vivo
[7] = Antioxidant activity assessed as inhibition of linoleic acid peroxidation at 100 mg/l after 24 hr by spectrophotometric analysis; type: functional

SMILES | Activity (Mus musculus [1]) | Activity (Mus musculus [2]) | Activity (Mus musculus [3]) | Activity (Mus musculus [4]) | Activity (Mus musculus [5]) | Activity (Mus musculus [6]) | inhibition [7]
O=c1c2ccccc2nc2n1NC(c1ccc(O)c(O)c1)C2 (configuration not stated) | Toxic | Toxic | Toxic |  |  |  | 
COC(=O)c1ccccc1NC(=O)/C=C/c1ccc(O)c(O)c1 |  |  |  | Toxic | Toxic | Toxic | Active
